Results: patent publication US10442815B2, “Tricyclic heterocyclic compounds as phosphoinositide 3-kinase inhibitors” (Karus Therapeutics Limited, priority 2015, dated 2019)

Assays:
Experiment in all cases: Ki determination, non-radiometric ADP-Glo assay (Proqinase GmbH)
Format in all cases: biochemical
PI3K p110α = molecular target: T1, PI3K p110α (Homo sapiens, UniProt P42336)
T1 construct: assay run at Proqinase GmbH
Source text: (§1) Biochemical activity against class I PI3K isoforms was confirmed by either Ki determination using the non-radiometric ADP-Glo™ assay (Promega, Madison, Wis., USA) at Proqinase GmbH, or IC50 determination using the HTRF biochemical assay at Reaction Biology Corp.

PI3K p110γ = molecular target: T2, PI3K p110γ (Homo sapiens, UniProt P48736)
T2 construct: assay run at Proqinase GmbH
Source text: as §1

PI3K p110δ = molecular target: T3, PI3K p110δ (Homo sapiens, UniProt O00329)
T3 construct: assay run at Proqinase GmbH
Source text: as §1

PI3K p110β = molecular target: T4, PI3K p110β (Homo sapiens, UniProt P42338)
T4 construct: assay run at Proqinase GmbH
Source text: as §1

T2 sequence (P48736 whole entry): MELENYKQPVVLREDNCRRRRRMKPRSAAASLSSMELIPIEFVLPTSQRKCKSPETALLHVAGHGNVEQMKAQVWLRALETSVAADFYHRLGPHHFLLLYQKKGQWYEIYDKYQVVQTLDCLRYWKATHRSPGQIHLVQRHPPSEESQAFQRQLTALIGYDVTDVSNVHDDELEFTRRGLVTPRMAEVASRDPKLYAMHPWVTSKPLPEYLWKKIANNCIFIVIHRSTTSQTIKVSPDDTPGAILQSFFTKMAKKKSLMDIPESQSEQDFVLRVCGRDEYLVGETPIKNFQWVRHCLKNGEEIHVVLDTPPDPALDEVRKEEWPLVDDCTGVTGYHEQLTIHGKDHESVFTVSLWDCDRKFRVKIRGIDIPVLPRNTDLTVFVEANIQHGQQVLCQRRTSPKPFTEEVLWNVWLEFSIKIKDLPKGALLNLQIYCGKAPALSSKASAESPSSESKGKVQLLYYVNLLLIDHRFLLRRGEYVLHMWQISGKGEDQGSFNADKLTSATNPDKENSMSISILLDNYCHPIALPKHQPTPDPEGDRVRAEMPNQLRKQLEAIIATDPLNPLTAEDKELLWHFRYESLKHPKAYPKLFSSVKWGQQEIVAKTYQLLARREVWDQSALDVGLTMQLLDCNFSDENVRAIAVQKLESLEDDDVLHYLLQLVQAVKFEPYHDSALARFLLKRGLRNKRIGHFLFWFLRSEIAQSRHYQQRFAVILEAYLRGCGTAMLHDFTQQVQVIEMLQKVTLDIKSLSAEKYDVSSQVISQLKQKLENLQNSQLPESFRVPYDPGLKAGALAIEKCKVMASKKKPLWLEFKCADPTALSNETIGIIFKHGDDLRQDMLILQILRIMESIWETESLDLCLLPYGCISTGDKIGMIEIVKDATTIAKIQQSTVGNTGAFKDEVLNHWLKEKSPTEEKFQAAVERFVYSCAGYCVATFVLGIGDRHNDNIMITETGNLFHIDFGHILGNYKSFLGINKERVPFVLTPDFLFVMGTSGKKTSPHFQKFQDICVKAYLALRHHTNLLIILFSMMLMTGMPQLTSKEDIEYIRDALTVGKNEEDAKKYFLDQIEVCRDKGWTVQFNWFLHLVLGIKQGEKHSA
T1 sequence (P42336 whole entry): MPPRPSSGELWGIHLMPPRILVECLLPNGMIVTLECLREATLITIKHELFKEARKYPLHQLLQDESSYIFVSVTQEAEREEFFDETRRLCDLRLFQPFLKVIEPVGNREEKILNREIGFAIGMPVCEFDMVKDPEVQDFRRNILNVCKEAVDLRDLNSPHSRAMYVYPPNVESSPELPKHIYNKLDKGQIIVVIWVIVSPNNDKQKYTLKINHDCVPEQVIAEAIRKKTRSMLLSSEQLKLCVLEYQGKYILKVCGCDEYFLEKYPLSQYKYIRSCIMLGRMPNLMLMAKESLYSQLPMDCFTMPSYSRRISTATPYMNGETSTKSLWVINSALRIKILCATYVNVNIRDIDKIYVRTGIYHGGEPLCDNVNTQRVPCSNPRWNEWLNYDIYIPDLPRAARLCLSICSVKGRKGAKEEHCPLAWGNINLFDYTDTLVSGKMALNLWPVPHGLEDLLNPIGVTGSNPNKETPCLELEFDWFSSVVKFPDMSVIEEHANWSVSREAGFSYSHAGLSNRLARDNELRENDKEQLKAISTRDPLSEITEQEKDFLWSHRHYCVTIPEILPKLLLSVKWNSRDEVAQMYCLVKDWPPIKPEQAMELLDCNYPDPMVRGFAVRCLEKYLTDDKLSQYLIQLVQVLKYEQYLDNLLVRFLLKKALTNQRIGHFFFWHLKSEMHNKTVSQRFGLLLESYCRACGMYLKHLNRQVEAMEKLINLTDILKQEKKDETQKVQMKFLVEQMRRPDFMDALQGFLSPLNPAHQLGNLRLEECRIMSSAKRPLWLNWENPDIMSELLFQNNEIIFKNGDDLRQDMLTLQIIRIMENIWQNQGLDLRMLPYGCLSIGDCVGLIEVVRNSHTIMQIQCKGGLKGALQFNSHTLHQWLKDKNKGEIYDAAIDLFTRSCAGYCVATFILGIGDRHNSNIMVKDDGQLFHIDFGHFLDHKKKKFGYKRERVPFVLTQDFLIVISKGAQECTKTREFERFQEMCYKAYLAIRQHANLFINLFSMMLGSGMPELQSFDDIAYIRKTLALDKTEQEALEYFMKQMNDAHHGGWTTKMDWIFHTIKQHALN
T1 sequence (P27986 whole entry partner): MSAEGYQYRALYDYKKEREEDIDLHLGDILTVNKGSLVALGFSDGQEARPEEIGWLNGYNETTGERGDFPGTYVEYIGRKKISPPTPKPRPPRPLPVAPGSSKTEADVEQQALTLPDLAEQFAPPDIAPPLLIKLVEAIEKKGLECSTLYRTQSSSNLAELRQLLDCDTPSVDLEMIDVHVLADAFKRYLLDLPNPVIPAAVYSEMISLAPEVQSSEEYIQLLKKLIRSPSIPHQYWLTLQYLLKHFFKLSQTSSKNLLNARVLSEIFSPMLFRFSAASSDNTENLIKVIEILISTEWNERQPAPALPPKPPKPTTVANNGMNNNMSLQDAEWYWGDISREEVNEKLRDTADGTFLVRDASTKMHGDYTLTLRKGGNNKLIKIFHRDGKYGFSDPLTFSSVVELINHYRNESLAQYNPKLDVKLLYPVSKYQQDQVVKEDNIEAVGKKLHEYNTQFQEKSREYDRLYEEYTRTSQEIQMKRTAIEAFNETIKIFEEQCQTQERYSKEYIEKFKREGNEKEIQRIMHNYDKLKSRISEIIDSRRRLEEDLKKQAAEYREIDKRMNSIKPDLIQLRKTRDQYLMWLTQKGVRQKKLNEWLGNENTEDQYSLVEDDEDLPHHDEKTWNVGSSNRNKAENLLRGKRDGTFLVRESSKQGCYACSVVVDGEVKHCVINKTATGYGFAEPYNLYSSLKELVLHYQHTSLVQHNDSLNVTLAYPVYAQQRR
T3 sequence (O00329 whole entry): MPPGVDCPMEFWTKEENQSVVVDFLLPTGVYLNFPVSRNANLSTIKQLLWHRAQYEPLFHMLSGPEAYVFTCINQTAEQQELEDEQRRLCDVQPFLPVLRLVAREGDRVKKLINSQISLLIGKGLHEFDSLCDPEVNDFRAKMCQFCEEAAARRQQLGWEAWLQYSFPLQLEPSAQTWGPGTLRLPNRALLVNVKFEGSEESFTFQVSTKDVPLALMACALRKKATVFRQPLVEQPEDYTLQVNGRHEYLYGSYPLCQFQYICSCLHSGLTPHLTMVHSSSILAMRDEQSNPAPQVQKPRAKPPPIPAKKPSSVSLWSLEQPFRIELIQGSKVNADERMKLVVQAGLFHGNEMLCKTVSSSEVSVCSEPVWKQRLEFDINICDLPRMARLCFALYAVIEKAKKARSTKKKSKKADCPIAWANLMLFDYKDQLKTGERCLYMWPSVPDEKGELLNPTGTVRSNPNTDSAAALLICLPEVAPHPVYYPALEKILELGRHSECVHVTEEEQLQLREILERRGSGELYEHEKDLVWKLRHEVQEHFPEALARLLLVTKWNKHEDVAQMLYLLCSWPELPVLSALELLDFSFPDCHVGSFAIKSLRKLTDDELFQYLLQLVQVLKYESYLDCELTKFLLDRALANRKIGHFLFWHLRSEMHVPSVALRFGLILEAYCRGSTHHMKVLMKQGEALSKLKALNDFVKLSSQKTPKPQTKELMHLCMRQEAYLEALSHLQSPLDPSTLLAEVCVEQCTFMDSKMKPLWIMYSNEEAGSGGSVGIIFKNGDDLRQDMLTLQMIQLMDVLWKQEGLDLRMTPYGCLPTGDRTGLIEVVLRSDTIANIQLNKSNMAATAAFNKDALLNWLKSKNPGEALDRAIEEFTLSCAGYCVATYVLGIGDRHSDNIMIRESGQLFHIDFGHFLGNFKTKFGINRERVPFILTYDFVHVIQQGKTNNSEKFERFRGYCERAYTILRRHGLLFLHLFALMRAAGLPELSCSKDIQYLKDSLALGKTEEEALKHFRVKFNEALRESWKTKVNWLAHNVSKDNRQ
T3 sequence (P27986 whole entry partner): as the sequence (P27986 whole entry partner) above
T4 sequence (P42338 whole entry): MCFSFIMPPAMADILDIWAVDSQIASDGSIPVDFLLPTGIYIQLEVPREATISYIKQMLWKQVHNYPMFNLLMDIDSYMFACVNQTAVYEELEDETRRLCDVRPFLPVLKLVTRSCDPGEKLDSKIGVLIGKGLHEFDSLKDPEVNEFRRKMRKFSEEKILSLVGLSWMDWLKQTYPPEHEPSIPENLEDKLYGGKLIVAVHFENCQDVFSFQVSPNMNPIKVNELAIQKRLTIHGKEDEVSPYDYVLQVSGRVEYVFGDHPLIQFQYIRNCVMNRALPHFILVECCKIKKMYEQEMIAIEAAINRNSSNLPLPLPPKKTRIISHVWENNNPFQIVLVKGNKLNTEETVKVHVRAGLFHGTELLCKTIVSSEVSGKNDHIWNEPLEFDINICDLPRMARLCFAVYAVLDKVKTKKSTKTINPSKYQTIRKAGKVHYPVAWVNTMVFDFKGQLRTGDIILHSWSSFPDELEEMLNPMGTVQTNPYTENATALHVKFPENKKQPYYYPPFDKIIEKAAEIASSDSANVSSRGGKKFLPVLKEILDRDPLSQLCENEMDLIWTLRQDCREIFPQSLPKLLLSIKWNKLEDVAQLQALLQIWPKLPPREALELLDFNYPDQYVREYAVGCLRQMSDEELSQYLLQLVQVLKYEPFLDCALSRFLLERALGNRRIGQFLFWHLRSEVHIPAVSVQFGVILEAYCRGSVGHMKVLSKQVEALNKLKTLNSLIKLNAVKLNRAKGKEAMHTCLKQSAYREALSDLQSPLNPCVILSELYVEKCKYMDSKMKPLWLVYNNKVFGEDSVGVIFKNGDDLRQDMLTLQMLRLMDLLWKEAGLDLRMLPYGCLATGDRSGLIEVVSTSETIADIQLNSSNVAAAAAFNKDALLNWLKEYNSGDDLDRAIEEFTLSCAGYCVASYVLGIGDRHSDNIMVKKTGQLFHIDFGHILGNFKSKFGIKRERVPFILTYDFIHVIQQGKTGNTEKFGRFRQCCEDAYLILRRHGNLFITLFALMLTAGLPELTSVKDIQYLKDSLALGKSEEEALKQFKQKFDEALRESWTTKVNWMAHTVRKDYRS
T4 sequence (P27986 whole entry partner): as the sequence (P27986 whole entry partner) above

Structure (SMILES)	Ki (PI3K p110α) [µM]	Ki (PI3K p110γ) [µM]	Ki (PI3K p110δ) [µM]	Ki (PI3K p110β) [µM]
O=S1(=O)CCN(Cc2cnc3oc4c(N5CCOCC5)nc(-c5cccc6[nH]ccc56)nc4c3c2)CC1 [Example A, 4-{[4-(1H-Indol-4-yl)-6-(morpholin-4-yl)-8-oxa-3,5,10-triazatricyclo[7.4.0.0^2,7]trideca-1(13),2(7),3,5,9,11-hexaen-12-yl]methyl]-1λ^6-thiomorpholine-1,1-dione]	1 to 10	> 10	≤ 0.5	≤ 0.5
[O-][S+]1CCN(Cc2cnc3oc4c(N5CCOCC5)nc(-c5cccc6[nH]ccc56)nc4c3c2)CC1 [Example AH, 4-{[4-(1H-indol-4-yl)-6-(morpholin-4-yl)-8-oxa-3,5,10-triazatricyclo[7.4.0.0^2^,7]trideca-1(13),2(7),3,5,9,11-hexaen-12-yl]methyl}-1λ^4-thiomorpholin-1-one]	1 to 10	> 10	≤ 0.5	≤ 0.5
[O-][S+]1CCN(Cc2cnc3sc4c(N5CCOCC5)nc(-c5cccc6[nH]ccc56)nc4c3c2)CC1 [Example AK, 4-{[4-(1H-Indol-4-yl)-6-(morpholin-4-yl)-8-thia-3,5,10-triazatricyclo[7.4.0.0^2^,7]trideca-1(9),2,4,6,10,12-hexaen-12-yl]methyl}-1λ^4-thiomorpholin-1-one]	> 10	> 10	1 to 10	1 to 10
Cc1c[nH]c2cccc(-c3nc(N4CCOCC4)c4oc5ncc(CN6CC[S+]([O-])CC6)cc5c4n3)c12 [Example AL, 4-{[4-(3-Methyl-1H-indol-4-yl)-6-(morpholin-4-yl)-8-oxa-3,5,10-triazatricyclo[7.4.0.0^2^,7]trideca-1(13),2(7),3,5,9,11-hexaen-12-yl]methyl}-1λ^4-thiomorpholin-1-one]	> 10	> 10	1 to 10	> 10
CN(CCS(C)(=O)=O)Cc1cnc2oc3c(N4CCOCC4)nc(-c4cccc5[nH]ccc45)nc3c2c1 [Example C, {[4-(1H-Indol-4-yl)-6-(morpholin-4-yl)-8-oxa-3,5,10-triazatricyclo[7.4.0.0^2,7]trideca-1(13),2(7),3,5,9,11-hexaen-12-yl]methyl}(2-methanesulfonylethyl)methylamine]	≤ 0.5	1 to 10	≤ 0.5	≤ 0.5
[O-][S+]1CCN(Cc2cnc3oc4c(N5CCOCC5)nc(-c5c(F)ccc6[nH]ccc56)nc4c3c2)CC1 [Example E]	1 to 10	1 to 10	≤ 0.5	≤ 0.5
[O-][S+]1CCN(Cc2cnc3oc4c(N5CCOCC5)nc(-c5cc(C(F)(F)F)cc6[nH]ccc56)nc4c3c2)CC1 [Example F]	> 10	> 10	> 10	> 10
N=S1(=O)CCN(Cc2cnc3oc4c(N5CCOCC5)nc(-c5cccc6[nH]ccc56)nc4c3c2)CC1 [Example G]	0.5 to 1	1 to 10	≤ 0.5	≤ 0.5
C[C@H](c1cnc2oc3c(N4CCOCC4)nc(-c4cccc5[nH]ccc45)nc3c2c1)N1CCS(=O)(=O)CC1 [Example H, 4-[(1R)-1-[4-(1H-Indol-4-yl)-6-(morpholin-4-yl)-8-oxa-3,5,10-triazatricyclo[7.4.0.0^2,7]trideca-1(13),2,4,6,9,11-hexaen-12-yl]ethyl]-1λ^6-thiomorpholine-1,1-dione]	0.5 to 1	1 to 10	≤ 0.5	≤ 0.5
C[C@@H](c1cnc2oc3c(N4CCOCC4)nc(-c4cccc5[nH]ccc45)nc3c2c1)N1CCS(=O)(=O)CC1 [Example I, 4-[(1S)-1-[4-(1H-Indol-4-yl)-6-(morpholin-4-yl)-8-oxa-3,5,10-triazatricyclo[7.4.0.0^2,7]trideca-1(13),2,4,6,9,11-hexaen-12-yl]ethyl]-1λ^6-thiomorpholine-1,1-dione]	≤ 0.5	> 10	≤ 0.5	≤ 0.5
c1cc(-c2nc(N3CCOCC3)c3oc4ncc(CN5C[C@@H]6C[C@H]5CS6)cc4c3n2)c2cc[nH]c2c1 [Example J, 4-(1H-Indol-4-yl)-6-(morpholin-4-yl)-12-[(1 S,4S)-2-thia-5-azabicyclo[2.2.1]heptan-5-ylmethyl]-8-oxa-3,5,10-triazatricyclo[7.4.0.0^2,7]trideca-1(13),2,4,6,9,11-hexaene]	1 to 10	> 10	≤ 0.5	≤ 0.5

Now from value to molecule:

Ki (PI3K p110α) [µM]	Ki (PI3K p110γ) [µM]	Ki (PI3K p110δ) [µM]	Ki (PI3K p110β) [µM]	Structure (SMILES)
0.5 to 1	1 to 10	≤ 0.5	≤ 0.5	Cc1cc2c(-c3nc(N4CCOCC4)c4oc5ncc(CN6CC[S+]([O-])CC6)cc5c4n3)cccc2[nH]1 [Example AG, 4-{[4-(2-methyl-1H-indol-4-yl)-6-(morpholin-4-yl)-8-oxa-3,5,10-triazatricyclo[7.4.0.0^2^,7]trideca-1(13),2(7),3,5,9,11-hexaen-12-yl]methyl}-1λ^4-thiomorpholin-1-one]
> 10	> 10	≤ 0.5	1 to 10	COc1ccc2c(c1-c1nc(N3CCOCC3)c3oc4ncc(CN5CC[S+]([O-])CC5)cc4c3n1)CCN2 [Example AI, 4-{[4-(5-Methoxy-2,3-dihydro-1H-indol-4-yl)-6-(morpholin-4-yl)-8-oxa-3,5,10-triazatricyclo[7.4.0.0^2^,7]trideca-1(13),2(7),3,5,9,11-hexaen-12-yl]methyl}-1λ^4-thiomorpholin-1-one]
> 10	> 10	≤ 0.5	1 to 10	[O-][S+]1CCN(Cc2cnc3oc4c(N5CCOCC5)nc(-c5cccc6[nH]cc(F)c56)nc4c3c2)CC1 [Example AJ, 4-{[4-(3-fluoro-1H-indol-4-yl)-6-(morpholin-4-yl)-8-oxa-3,5,10-triazatricyclo[7.4.0.0^2^,7]trideca-1(13),2(7),3,5,9,11-hexaen-12-yl]methyl}-1λ^4-thiomorpholin-1-one]
> 10	> 10	1 to 10	> 10	[O-][S+]1CCN(Cc2cnc3oc4c(N5CCOCC5)nc(-c5cc(Cl)cc6[nH]ccc56)nc4c3c2)CC1 [Example AM, 4-{[4-(6-Chloro-1H-indol-4-yl)-6-(morpholin-4-yl)-8-oxa-3,5,10-triazatricyclo[7.4.0.0^2^,7]trideca-1(13),2(7),3,5,9,11-hexaen-12-yl]methyl}-1λ^4-thiomorpholin-1-one]
> 10	> 10	> 10	> 10	N#Cc1c[nH]c2cccc(-c3nc(N4CCOCC4)c4oc5ncc(CN6CC[S+]([O-])CC6)cc5c4n3)c12 [Example AN, 4-[6-(morpholin-4-yl)-12-[(1-oxo-1λ^4-thiomorpholin-4-yl)methyl]-8-oxa-3,5,10-triazatricyclo[7.4.0.0^2,^7]trideca-1(13),2(7),3,5,9,11-hexaen-4-yl]-1H-indole-3-carbonitrile]
> 10	> 10	≤ 0.5	≤ 0.5	[O-][S+]1CCN(Cc2cnc3oc4c(N5CCOCC5)nc(-c5cc(F)cc6[nH]ccc56)nc4c3c2)CC1 [Example D]
